The values below come from paper PMC7540173 (Chemistry (Weinheim an Der Bergstrasse, Germany), 2020).

Bounds are passed on as bounds.

The target of one experiment is human αvβ3 integrin (Homo sapiens, UniProt P05106+P06756). The experiment in a line: ELISA-like solid-phase integrin binding assay. Background: ELISA stands for enzyme-linked immunosorbent assay.
Another experiment has as its target human α5β1 integrin (Homo sapiens, UniProt P05556+P08648). As to the kind of experiment: ELISA-like solid-phase integrin binding assay.

human α5β1 integrin, sequence (P08648 42-995 limits assumed): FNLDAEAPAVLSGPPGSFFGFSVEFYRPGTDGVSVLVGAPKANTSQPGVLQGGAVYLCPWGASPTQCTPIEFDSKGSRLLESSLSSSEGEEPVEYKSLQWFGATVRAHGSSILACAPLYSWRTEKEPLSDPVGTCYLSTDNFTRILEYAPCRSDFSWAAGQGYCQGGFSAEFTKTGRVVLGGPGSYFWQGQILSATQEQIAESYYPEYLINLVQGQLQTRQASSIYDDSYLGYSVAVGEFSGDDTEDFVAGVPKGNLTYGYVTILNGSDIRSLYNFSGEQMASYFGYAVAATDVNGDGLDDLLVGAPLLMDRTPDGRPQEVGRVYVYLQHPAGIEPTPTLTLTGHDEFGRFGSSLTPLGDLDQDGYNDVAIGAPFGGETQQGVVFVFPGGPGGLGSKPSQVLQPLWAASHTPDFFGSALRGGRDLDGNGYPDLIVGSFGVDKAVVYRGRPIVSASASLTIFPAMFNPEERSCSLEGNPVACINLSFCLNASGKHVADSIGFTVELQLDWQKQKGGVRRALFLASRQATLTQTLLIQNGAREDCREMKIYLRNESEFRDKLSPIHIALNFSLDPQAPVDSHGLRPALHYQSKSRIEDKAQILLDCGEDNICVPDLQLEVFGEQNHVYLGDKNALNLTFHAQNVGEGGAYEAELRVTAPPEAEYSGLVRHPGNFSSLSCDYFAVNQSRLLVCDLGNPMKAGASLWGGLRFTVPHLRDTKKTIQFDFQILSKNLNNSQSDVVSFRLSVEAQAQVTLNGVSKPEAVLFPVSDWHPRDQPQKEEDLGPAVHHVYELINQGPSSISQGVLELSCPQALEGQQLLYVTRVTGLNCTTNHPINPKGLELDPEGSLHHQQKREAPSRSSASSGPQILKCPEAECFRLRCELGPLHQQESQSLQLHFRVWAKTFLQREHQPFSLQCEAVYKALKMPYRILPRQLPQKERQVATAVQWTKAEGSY
human α5β1 integrin, sequence (P05556 21-728 limits assumed): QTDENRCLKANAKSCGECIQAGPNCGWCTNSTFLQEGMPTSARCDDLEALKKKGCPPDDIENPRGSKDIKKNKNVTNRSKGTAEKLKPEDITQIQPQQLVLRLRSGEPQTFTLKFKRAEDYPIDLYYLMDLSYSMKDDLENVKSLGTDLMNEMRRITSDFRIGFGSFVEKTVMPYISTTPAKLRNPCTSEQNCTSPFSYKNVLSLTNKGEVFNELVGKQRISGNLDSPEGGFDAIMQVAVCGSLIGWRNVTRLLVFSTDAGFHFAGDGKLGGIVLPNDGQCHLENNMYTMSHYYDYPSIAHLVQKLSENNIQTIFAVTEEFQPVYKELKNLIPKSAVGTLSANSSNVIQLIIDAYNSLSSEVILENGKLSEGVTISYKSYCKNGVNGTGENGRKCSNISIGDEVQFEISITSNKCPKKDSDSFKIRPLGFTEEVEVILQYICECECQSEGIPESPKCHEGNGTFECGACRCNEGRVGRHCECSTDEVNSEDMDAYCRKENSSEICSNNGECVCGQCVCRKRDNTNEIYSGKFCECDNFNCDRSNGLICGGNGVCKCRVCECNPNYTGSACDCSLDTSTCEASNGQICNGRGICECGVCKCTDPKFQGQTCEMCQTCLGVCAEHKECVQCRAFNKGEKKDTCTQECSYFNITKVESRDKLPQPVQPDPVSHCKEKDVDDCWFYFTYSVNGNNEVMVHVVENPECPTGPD
human αvβ3 integrin, sequence (P06756 31-992 limits assumed): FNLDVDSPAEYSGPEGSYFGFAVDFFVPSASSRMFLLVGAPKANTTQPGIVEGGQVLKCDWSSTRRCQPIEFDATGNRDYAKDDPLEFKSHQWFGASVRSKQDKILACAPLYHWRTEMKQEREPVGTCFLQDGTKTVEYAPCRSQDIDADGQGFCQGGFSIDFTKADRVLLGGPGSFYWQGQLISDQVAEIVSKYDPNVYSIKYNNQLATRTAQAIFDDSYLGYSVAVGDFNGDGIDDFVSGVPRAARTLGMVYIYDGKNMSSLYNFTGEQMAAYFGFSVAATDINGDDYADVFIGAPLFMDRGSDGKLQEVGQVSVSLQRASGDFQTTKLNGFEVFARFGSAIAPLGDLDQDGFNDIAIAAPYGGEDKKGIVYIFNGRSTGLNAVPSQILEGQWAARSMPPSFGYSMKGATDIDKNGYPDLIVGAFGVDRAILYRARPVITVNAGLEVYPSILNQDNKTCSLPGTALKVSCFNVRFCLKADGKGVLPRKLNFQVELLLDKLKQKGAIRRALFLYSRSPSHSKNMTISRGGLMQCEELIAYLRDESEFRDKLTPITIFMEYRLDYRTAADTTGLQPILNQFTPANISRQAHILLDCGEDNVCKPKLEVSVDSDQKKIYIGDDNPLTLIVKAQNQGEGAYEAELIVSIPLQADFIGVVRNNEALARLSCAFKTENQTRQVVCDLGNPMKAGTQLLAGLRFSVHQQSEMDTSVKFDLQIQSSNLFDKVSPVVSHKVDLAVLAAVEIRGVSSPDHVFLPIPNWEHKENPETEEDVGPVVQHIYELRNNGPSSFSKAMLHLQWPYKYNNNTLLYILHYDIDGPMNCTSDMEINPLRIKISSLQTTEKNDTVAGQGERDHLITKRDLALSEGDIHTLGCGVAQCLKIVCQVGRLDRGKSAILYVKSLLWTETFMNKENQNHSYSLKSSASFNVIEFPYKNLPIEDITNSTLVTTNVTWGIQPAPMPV
human αvβ3 integrin, sequence (P05106 27-718 limits assumed): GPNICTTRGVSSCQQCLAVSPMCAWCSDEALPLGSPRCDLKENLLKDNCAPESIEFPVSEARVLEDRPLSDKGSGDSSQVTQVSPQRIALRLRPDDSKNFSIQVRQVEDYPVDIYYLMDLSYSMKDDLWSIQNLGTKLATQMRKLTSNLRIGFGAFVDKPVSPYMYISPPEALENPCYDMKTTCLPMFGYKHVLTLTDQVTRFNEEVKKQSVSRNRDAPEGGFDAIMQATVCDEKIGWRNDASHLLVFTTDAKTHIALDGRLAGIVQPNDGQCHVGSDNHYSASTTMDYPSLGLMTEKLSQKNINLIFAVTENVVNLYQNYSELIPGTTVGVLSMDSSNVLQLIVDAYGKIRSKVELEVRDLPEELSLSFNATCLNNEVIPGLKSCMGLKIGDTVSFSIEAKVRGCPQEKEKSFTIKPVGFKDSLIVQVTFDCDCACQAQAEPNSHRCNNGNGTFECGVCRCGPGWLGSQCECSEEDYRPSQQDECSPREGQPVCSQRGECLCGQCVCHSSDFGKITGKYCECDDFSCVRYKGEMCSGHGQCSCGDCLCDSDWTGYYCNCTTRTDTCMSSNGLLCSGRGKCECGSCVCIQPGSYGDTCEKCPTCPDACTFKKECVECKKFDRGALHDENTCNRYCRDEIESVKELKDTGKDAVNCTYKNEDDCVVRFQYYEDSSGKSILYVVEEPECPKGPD

One may read the IC50 as the concentration that inhibits the measured activity by half. A higher IC50 goes with a need for much substance. On human αvβ3 integrin, `CN1C(=O)[C@H](CC(=O)O)NC(=O)CNC(=O)[C@H](CCCNC(=N)N)NC(=O)CCCCCN2c3ccccc3Sc3cc(ccc32)-c2cccc3c(c[nH]c23)C[C@H]1C(N)=O` [12 e, c(RGD(NMe)W(7‐3Ptz^2))] returned an IC50 of 6.55 ± 0.76 µM. Also, on human αvβ3 integrin (N-methyl tryptophan derivatives vs 12 a–c), the “decrease in the affinities compared to their unmethylated analogues” value was 15–20 fold.

On to `N=C(N)NCCC[C@@H]1NC(=O)CCCCCN2c3ccccc3Sc3cc(ccc32)-c2cccc3c(c[nH]c23)C[C@H](C(N)=O)NC(=O)[C@H](CC(=O)O)NC(=O)CNC1=O` [12 b, c(RGDw(7‐3Ptz^2))], for which the IC50 at human αvβ3 integrin came out at 0.6 ± 0.11 µM; at human α5β1 integrin, 5.68 ± 1.28 µM.

Turning to `N=C(N)NCCC[C@@H]1NC(=O)CN2c3ccccc3Sc3cc(ccc32)-c2cccc3c(c[nH]c23)C[C@@H](C(N)=O)NC(=O)[C@H](CC(=O)O)NC(=O)CNC1=O` [12 c, c(RGDW(7‐3Ptz^1))], the IC50 was determined as 0.31 ± 0.08 µM at human αvβ3 integrin and 2.22 ± 1.04 µM at human α5β1 integrin.

Consider `CN1C(=O)[C@H](CC(=O)O)NC(=O)CNC(=O)[C@H](CCCNC(=N)N)NC(=O)CN2c3ccccc3Sc3cc(ccc32)-c2cccc3c(c[nH]c23)C[C@H]1C(N)=O` [12 f, c(RGD(NMe)W(7‐3Ptz^1))], for which the IC50 was 4.52 ± 0.53 µM on human αvβ3 integrin and over 10 µM on human α5β1 integrin.

`N=C(N)NCCC[C@@H]1NC(=O)CCCCCN2c3ccccc3Sc3cc(ccc32)-c2cccc3c(c[nH]c23)C[C@@H](C(N)=O)NC(=O)[C@H](CC(=O)O)NC(=O)CNC1=O` [12 a, c(RGDW(7‐3Ptz^2))] displayed an IC50 at human αvβ3 integrin of 0.33 ± 0.04 µM.

In the case of `N=C(N)NCCC[C@@H]1NC(=O)CN2c3ccccc3Sc3cc(ccc32)-c2cccc3c(c[nH]c23)C[C@H](C(N)=O)NC(=O)[C@H](CC(=O)O)NC(=O)CNC1=O` [12 d, c(RGDw(7‐3Ptz^1))], the IC50 on human αvβ3 integrin was 0.78 ± 0.17 µM; on human α5β1 integrin, over 10 µM.

Take c(RGDW(7‐3Ptz^1(O))) [12 h]: the “selectivity towards the integrin αVβ3 (over α5β1)” value at human αvβ3 integrin (ratio of IC50 α5β1 / αVβ3) was “≈ 110 fold”.

For the compound `N#CC(C#N)=Cc1ccc2c(c1)Sc1cc3ccc1N2CCCCCC(=O)N[C@@H](CCCNC(=N)N)C(=O)NCC(=O)N[C@@H](CC(=O)O)C(=O)N[C@@H](C(N)=O)Cc1c[nH]c2c-3cccc12` [12 g, c(RGDw(7‐3Ptz^2(CH(CN)2))], the IC50 on human αvβ3 integrin is 0.961 ± 0.05 µM; on human α5β1 integrin, over 10 µM.
